According to US20080280920A1, “Plasminogen Activator Inhibitor-1 Inhibitors” (priority 2005, published 2008):

Legend:
SW-620 = test: NCI anticancer screen, SW-620; format: cell-based, human; settings: SW-620, Colon, 48 h
TK-10 = test: NCI anticancer screen, TK-10; format: cell-based, human; settings: TK-10, Renal, 48 h
UACC-62 = test: NCI anticancer screen, UACC-62; format: cell-based, human; settings: UACC-62, Melanoma, 48 h
SK-OV-3 = test: NCI anticancer screen, SK-OV-3; format: cell-based, human; settings: SK-OV-3, Ovarian, 48 h
SF-268 = test: NCI anticancer screen, SF-268; format: cell-based, human; settings: SF-268, CNS, 48 h
MCF7 = test: NCI anticancer screen, MCF7; format: cell-based, human; settings: MCF7, Breast, 48 h
HL-60(TB) = test: NCI anticancer screen, HL-60(TB); format: cell-based, human; settings: Leukemia, 48 h
OVCAR-4 = test: NCI anticancer screen, OVCAR-4; format: cell-based, human; settings: OVCAR-4, Ovarian, 48 h
MOLT-4 = test: NCI anticancer screen, MOLT-4; format: cell-based, human; settings: MOLT-4, Leukemia, 48 h
U251 = test: NCI anticancer screen, U251; format: cell-based, human; settings: U251, CNS, 48 h
SF-539 = test: NCI anticancer screen, SF-539; format: cell-based, human; settings: SF-539, CNS, 48 h
HCC-2998 = test: NCI anticancer screen, HCC-2998; format: cell-based, human; settings: HCC-2998, Colon, 48 h
HOP-92 = test: NCI anticancer screen, HOP-92; format: cell-based, human; settings: HOP-92, Non-Small Cell Lung, 48 h
CAKI-1 = test: NCI anticancer screen, CAKI-1; format: cell-based, human; settings: CAKI-1, Renal, 48 h
wildtype human PAI-1 = target: T1, wildtype human PAI-1 (Homo sapiens, UniProt P05121); test: PAI-1/uPA assay (residual uPA activity, fluorescent substrate SpectroFluor); format: biochemical; settings: within the concentration range tested
T1 construct: purchased Molecular Innovations Lot# HWT-804
T1 sequence (P05121 24-402): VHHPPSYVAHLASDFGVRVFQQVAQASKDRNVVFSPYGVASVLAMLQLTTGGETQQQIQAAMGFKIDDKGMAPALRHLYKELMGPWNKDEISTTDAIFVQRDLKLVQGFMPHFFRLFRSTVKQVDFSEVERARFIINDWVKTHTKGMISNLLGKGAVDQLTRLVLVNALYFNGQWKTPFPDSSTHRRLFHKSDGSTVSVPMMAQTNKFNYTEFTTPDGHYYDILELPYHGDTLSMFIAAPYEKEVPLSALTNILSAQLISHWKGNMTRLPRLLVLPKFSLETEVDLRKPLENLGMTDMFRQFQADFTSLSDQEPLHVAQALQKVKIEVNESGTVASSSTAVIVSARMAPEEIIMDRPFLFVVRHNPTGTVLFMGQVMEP
Experimental: Principle: The assay is based on using a fluorescent substrate (SpectroFluor) to measure residual uPA following inhibition of uPA by PAI-1. PAI-1 used in the assay is pre-treated in the presence of increasing concentrations of the lead compounds to screen for any inhibitory effects on PAI-1. Method: This assay was performed in 96 well microtiter plates. The concentrations of uPA (8 nM) and PAI-1 (6 nM) used in this assay were carefully optimized when using the fluorescent substrate, SpectroFluor™. Stock solutions (10 mM) of all lead compounds were prepared fresh in DMSO. […] 20 μl of 6 nM wildtype human PAI-1 (Molecular Innovations, Lot# HWT-804) was incubated for 15-20 minutes at room temperature in 96 well microtiter plates either with buffer, (50 mM HEPES, 150 mM NaCl, 0.05% Tween-20, 1% BSA, pH 6.6) or various concentrations (10 nM to 100 μM final concentration) of lead compounds in a total volume of 80 μl. A 20 μl aliquot of 8 nM uPA (HMW) solution in 0.05M Tris Buffered™ saline (TBS), pH 8.4 was added to each well and the mixture incubated for an additional 5 minutes at RT. The proteolytic reaction was initiated by addition of 50 μl of 0.1 mM SpectroFluor (Spectrozyme UK Fluorogenic substrate) to each well. The kinetics of the free chromophore, 7-amino-4-methylcoumarin (AMC) released in the course of peptide cleavage by the protease, uPA, was monitored for 30 minutes at 37° C. on a spectrofluorometric microplate reader with an excitation wavelength of 360 nm and emission wavelength of 440 nm. Kinetic data regarding the rate of substrate cleavage by uPA was acquired with Softmax PrO™ software. The difference between the residual uPA activity in the presence or absence of untreated PAI-1, at the molar ratio used, was considered as the “total” PAI-1 activity (100%). The inhibition of uPA by PAI-1 treated with lead compounds was expressed as a percentage of the initial activity of untreated PAI-1. Controls were performed during each experiment to ensure the nearly complete inhibition of uPA by untreated PAI-1 and also to ensure the absence of any direct effect of the lead compounds on uPA alone or on SpectroFluor.

BT-549 = test: NCI anticancer screen, BT-549; format: cell-based, human; settings: BT-549, Breast, 48 h
SK-MEL-5 = test: NCI anticancer screen, SK-MEL-5; format: cell-based, human; settings: SK-MEL-5, Melanoma, 48 h
HS 578T = test: NCI anticancer screen, HS 578T; format: cell-based, human; settings: Breast, 48 h
UACC-257 = test: NCI anticancer screen, UACC-257; format: cell-based, human; settings: UACC-257, Melanoma, 48 h
EKVX = test: NCI anticancer screen, EKVX; format: cell-based, human; settings: Non-Small Cell Lung, 48 h
PC-3 = test: NCI anticancer screen, PC-3; format: cell-based, human; settings: PC-3, Prostate, 48 h
[1] = Homo sapiens, read-out: LC50 (the source's name)

COc1cc(CNCC2CCN(C(=O)OC(C)(C)C)CC2)cc(CN2CCN(c3ccccn3)CC2)c1O [Compound Q012132, 2-Methoxy-4-({[(N-t-butyloxycarbonylpiperidin-4-yl)methyl]amino}methyl)-6-[(4-pyridin-2-ylpiperazin-1-yl)methyl]phenol]
GI50 (SW-620; Homo sapiens): 16.1 µM | CC50 (SW-620; [1]): 59.1 µM | TGI (SW-620): 30.8 µM | GI50 (TK-10; Homo sapiens): 19.5 µM | CC50 (TK-10; [1]): 86.5 µM | TGI (TK-10): 41.0 µM | GI50 (UACC-62; Homo sapiens): 17.2 µM | CC50 (UACC-62; [1]): 64.3 µM | TGI (UACC-62): 33.3 µM | GI50 (SK-OV-3; Homo sapiens): 29.4 µM | CC50 (SK-OV-3; [1]): > 100 µM | TGI (SK-OV-3): 98.8 µM | GI50 (SF-268; Homo sapiens): 18.5 µM | LC50 (SF-268; Homo sapiens): > 100 µM | TGI (SF-268): 44.1 µM | GI50 (MCF7; Homo sapiens): 18.6 µM | CC50 (MCF7; [1]): 73 µM | TGI (MCF7): 36.9 µM | GI50 (HL-60(TB); Homo sapiens): 14.8 µM | CC50 (HL-60(TB); [1]): 72.6 µM | TGI (HL-60(TB)): 32.8 µM | GI50 (OVCAR-4; Homo sapiens): 47.8 µM | CC50 (OVCAR-4; [1]): > 100 µM | TGI (OVCAR-4): >100 µM | GI50 (MOLT-4; Homo sapiens): 13 µM | CC50 (MOLT-4; [1]): > 100 µM | TGI (MOLT-4): 42.4 µM | GI50 (U251; Homo sapiens, U-251): 15.1 µM | CC50 (U251; Homo sapiens, U-251, read-out: LC50 (the source's name)): 55.8 µM | TGI (U251): 29.1 µM | GI50 (SF-539; Homo sapiens): 14.6 µM | CC50 (SF-539; [1]): 54.6 µM | TGI (SF-539): 28.2 µM | TGI (HCC-2998): 28.9 µM | GI50 (HCC-2998; Homo sapiens): 14.5 µM | LC50 (HCC-2998; Homo sapiens): 57.7 µM | TGI (HOP-92): 26.6 µM | GI50 (HOP-92; Homo sapiens): 10.7 µM | LC50 (concentration killing 50% of starting cells) (HOP-92; Homo sapiens): 66.3 µM | TGI (CAKI-1): 51.7 µM | GI50 (CAKI-1; Homo sapiens): 22.8 µM | CC50 (CAKI-1; [1]): > 100 µM | Conc. of compound required for PAI-1 inhibition (result in words) (wildtype human PAI-1): No inhibition | TGI (BT-549): 28.9 µM | GI50 (BT-549; Homo sapiens): 14.6 µM | CC50 (BT-549; [1]): 57.1 µM | GI50 (SK-MEL-5; Homo sapiens): 13.1 µM | CC50 (SK-MEL-5; [1]): 51.5 µM | TGI (SK-MEL-5): 26.0 µM | TGI (HS 578T): 38.2 µM | GI50 (HS 578T; Homo sapiens): 16.4 µM | CC50 (HS 578T; [1]): 88.6 µM | GI50 (UACC-257; Homo sapiens): 18.4 µM | CC50 (UACC-257; [1]): > 100 µM | TGI (UACC-257): 45.7 µM | GI50 (EKVX; Homo sapiens): 91.2 µM | CC50 (EKVX; [1]): > 100 µM | TGI (EKVX): >100 µM | GI50 (PC-3; Homo sapiens): 21.8 µM | CC50 (PC-3; [1]): > 100 µM | TGI (PC-3): 81.1 µM
